In this experiment the target is T1, endogenous PTHR in ROS 17/2.8 cells (Rattus norvegicus, UniProt P25961).
T1 construct: ROS 17/2.8 cells are rat osteosarcoma cells and express the endogenous PTHR; endogenous in cells; host or cells: ROS 17/2.8 rat osteosarcoma cells
T1 sequence (P25961 27-591): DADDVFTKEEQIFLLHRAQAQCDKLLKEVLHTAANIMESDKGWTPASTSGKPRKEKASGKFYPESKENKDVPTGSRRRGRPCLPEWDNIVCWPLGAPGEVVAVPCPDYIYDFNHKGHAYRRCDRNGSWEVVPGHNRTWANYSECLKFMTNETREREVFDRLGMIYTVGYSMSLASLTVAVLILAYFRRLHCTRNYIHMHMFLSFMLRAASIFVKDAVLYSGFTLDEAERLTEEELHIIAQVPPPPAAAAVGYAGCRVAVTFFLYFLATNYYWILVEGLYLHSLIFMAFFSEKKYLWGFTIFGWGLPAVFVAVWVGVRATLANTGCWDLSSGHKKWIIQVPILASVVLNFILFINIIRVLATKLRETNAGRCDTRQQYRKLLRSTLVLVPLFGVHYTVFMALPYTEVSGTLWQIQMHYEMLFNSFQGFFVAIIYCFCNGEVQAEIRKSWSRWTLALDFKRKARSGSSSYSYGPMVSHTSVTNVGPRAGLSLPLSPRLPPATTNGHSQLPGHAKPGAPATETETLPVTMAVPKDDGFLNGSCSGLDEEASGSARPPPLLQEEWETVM
Briefly: Competition binding in intact ROS 17/2.8 cells with 125I-PTH(1-34) tracer. The following applies: 125I-[Nle8,21,Tyr34]rPTH(1-34)NH2 tracer. How it is done:
Cell Culture—Cells were cultured at 37° C. in a humidified atmosphere containing 5% CO2 in Dulbecco's modified Eagle's medium (DMEM), supplemented with 10% fetal bovine serum (HyClone, Logan Utah), 100 units/ml penicillin G, and 100 ug/ml streptomycin penicillin G/streptomycin (Invitrogen Corp. Carlsbad, Calif.). For binding and cAMP studies performed with the intact PTHR, the HKRK-B7 and ROS 17/2.8 cell lines were used. HKRK-B7 cells are derived from the porcine kidney cell line LLC-PK1 and express, via stable DNA transfection, the wild-type human PTHR at an approximate surface density of 950,000 PTH-binding sites per cell. […]
Receptor binding—Binding to the wild-type human PTHR in intact HKRK-B7 cells and ROS 17/2.8 cells was assessed using ^125I-PTH(1-34) as a tracer radioligand, as described (Shimizu, M., (2001) Endocrinology 142:3068-3074). […] The binding mixture was then removed by aspiration, the cells were rinsed three times with binding buffer, lysed in 1 M NaOH, and the entire lysate was counted for gamma-irradiation in a gamma counter. Binding to PTHR-delNt in COS-7 cell membranes was assessed in 96-well, vacuum filtration plates (Multiscreen-Durapore HV, […] membranes, Millipore Corp., Millford, Mass.) using ^125I-[Aib^1,3,M]PTH(1-15)NH2 as a tracer radioligand, as described (Dean, T., (2006) Mol Endocrinol 20:931-942). […]

Usually IC50 stands for the concentration at which inhibition is half-maximal. Low readings indicate higher potency, high ones lower potency. “SVSEIQLMHNLGKHLNSMEEVEWLRKKLQDV [Arg^20→Glu]” returned an IC50 of 5.8 µM.

The values are drawn from US8143374B2, “Polypeptide derivatives of parathyroid hormone (PTH)” (The General Hospital Corporation, priority 2006, dated 2012).
